The source of these data is ChEMBL document CHEMBL3994568 (2016).

As a reminder, the MIC is the smallest concentration in the dilution series that meets the test's criterion for growth inhibition. Low readings indicate a more susceptible organism, high ones a less susceptible organism.

SMILES strings stand for the structures. ≈ marks a conversion by molar mass, not a printed value. Calls of active or inactive are those of the source.

The test system of assay [1] is Escherichia coli. Nature of the assay: Antibacterial activity against Escherichia coli JM109 after 24 hrs by two-fold microbroth dilution method. To be noted: JM109, 24 h. Type of assay: functional. In general terms: Dilution methods test growth across graded concentrations, often in twofold steps.
The test system of assay [2] is Bacillus spizizenii. In words: Antibacterial activity against Bacillus subtilis ATCC 6633 after 24 hrs by two-fold microbroth dilution method. It is filed as functional. The conditions noted are these: ATCC 6633, 24 h.
The subject of assay [3] is Bacillus. Nature of the assay: Antibacterial activity against Bacillus proteus ATCC 13315 after 24 hrs by two-fold microbroth dilution method. It is filed as functional. The conditions noted are these: ATCC 13315, 24 h.
The test system of assay [4] is Cyberlindnera jadinii. In words: Antifungal activity against Candida utilis ATCC 9950 after 24 hrs by two-fold microbroth dilution method. Type of assay: functional. The conditions noted are these: Williopsis jadinii, ATCC 9950, 24 h.
Assay [5] has as its system Staphylococcus aureus. In words: Antibacterial activity against Staphylococcus aureus ATCC 25923 after 24 hrs by two-fold microbroth dilution method. Type of assay: functional. To be noted: ATCC 25923, 24 h.
In assay [6] the test system is Candida albicans. Nature of the assay: Antifungal activity against Candida albicans ATCC 10231 after 24 hrs by two-fold microbroth dilution method. It is filed as functional. To be noted: ATCC 10231, 24 h.
The test system of assay [7] is Micrococcus luteus. Nature of the assay: Antibacterial activity against Micrococcus luteus ATCC 4698 after 24 hrs by two-fold microbroth dilution method. Type of assay: functional. To be noted: NCTC 2665, 24 h.
The subject of assay [8] is Aspergillus flavus. Nature of the assay: Antifungal activity against Aspergillus flavus ATCC 204304 after 24 hrs by two-fold microbroth dilution method. Type of assay: functional. The conditions noted are these: ATCC 204304, 24 h.
The subject of assay [9] is Pseudomonas aeruginosa. In words: Potency index, ratio of chloromycin MIC to compound MIC for Pseudomonas aeruginosa ATCC 27853. It is filed as functional.
For assay [10], the system named is HEp-2. In words: Cytotoxicity against human Hep2 cells assessed as cell viability up to 125 ug/ml after 24 hrs by CCK8 assay relative to control. Type of assay: functional. For orientation: Tetrazolium dyes change colour on reduction, which living cells bring about.
A short description of assay [11]: Antibacterial activity against Eberthella typhosa ATCC 14028 after 24 hrs by two-fold microbroth dilution method. It is filed as functional. To be noted: ATCC 14028, 24 h.
The test system of assay [12] is Pichia norvegensis. Nature of the assay: Antifungal activity against Candida mycoderma ATCC 9888 after 24 hrs by two-fold microbroth dilution method. To be noted: ATCC 9888, 24 h. Type of assay: functional.
Assay [13] has as its system Pseudomonas aeruginosa. In words: Antibacterial activity against Pseudomonas aeruginosa ATCC 27853 after 24 hrs by two-fold microbroth dilution method. The conditions noted are these: ATCC 27853, 24 h. It is filed as functional.
Assay [14] deals with Saccharomyces cerevisiae. Nature of the assay: Antifungal activity against Saccharomyces cerevisiae ATCC 9763 after 24 hrs by two-fold microbroth dilution method. It is filed as functional. The conditions noted are these: ATCC 9763, 24 h.
Assay [15] relates to Staphylococcus aureus. In words: Antibacterial activity against methicillin-resistant Staphylococcus aureus N315 after 24 hrs by two-fold microbroth dilution method. Type of assay: functional. The conditions noted are these: N315, 24 h.
Assay [16] is filed under the species Bos taurus. Nature of the assay: Binding affinity to calf thymus DNA assessed as hypochromic effect by UV-vis absorption spectra analysis.
Assay [17] is filed under the species Bos taurus. Nature of the assay: Induction of calf thymus DNA intercalation assessed as inhibition of neutral red binding to DNA by UV-vis absorption spectra analysis.
The species named for assay [18] is Bos taurus. Nature of the assay: Binding affinity to calf thymus DNA by UV-vis absorption spectra analysis.
For assay [19], the system named is Staphylococcus aureus. Nature of the assay: Potency index, ratio of norfloxacin MIC to compound MIC for methicillin-resistant Staphylococcus aureus N315. Type of assay: functional.
The test system of assay [20] is Staphylococcus aureus. In words: Potency index, ratio of chloromycin MIC to compound MIC for methicillin-resistant Staphylococcus aureus N315. It is filed as functional.
For assay [21], the species on record is Bos taurus. In words: Induction of calf thymus DNA intercalation assessed as compound-DNA complex formation at 5 x 10^-5mol/L by fluorescence spectroscopic method.

Turning to `CCCCCn1c2ccc(-c3csc(N)n3)cc2c2cc(-c3csc(N)n3)ccc21`, the MIC in assay [1] turned out to be 256 µg/mL (≈ 590 µM); in [2], 256 µg/mL (≈ 590 µM); in assay [3], 256 µg/mL (≈ 590 µM); in assay [4] it was 128 µg/mL (≈ 295 µM); in assay [5], 64 µg/mL (≈ 148 µM); in assay [6], 128 µg/mL (≈ 295 µM). In addition, the MIC stood at 64 µg/mL (≈ 148 µM) in assay [7]; 256 µg/mL (≈ 590 µM) in [8]; 128 µg/mL (≈ 295 µM) in [11]; 64 µg/mL (≈ 148 µM) in assay [12]; 2 µg/mL (≈ 4.61 µM) in assay [13]; 128 µg/mL (≈ 295 µM) in assay [14]. Further, the MIC in [15] stood at 128 µg/mL (≈ 295 µM). In addition, in [9], the Ratio is 8. Also, in assay [10], the Activity came to 85%.

Consider `CCCCCCCn1c2ccc(-c3csc(N)n3)cc2c2cc(-c3csc(N)n3)ccc21`, for which the Activity entry in assay [16] was “Dose-dependent effect”; in assay [10] it was 85%. Besides, the MIC in assay [1] worked out at 128 µg/mL (≈ 277 µM); in assay [2], 256 µg/mL (≈ 555 µM); in assay [3], 256 µg/mL (≈ 555 µM); in assay [4], 256 µg/mL (≈ 555 µM); in assay [5] it was 16 µg/mL (≈ 34.7 µM); in assay [6], 128 µg/mL (≈ 277 µM). Besides, the MIC in [7] is 64 µg/mL (≈ 139 µM); in assay [8], 256 µg/mL (≈ 555 µM); in [11], 128 µg/mL (≈ 277 µM); in assay [12], 64 µg/mL (≈ 139 µM); in assay [13], 128 µg/mL (≈ 277 µM); in assay [14], 128 µg/mL (≈ 277 µM). This compound had an MIC in assay [15] of 4 µg/mL (≈ 8.66 µM). Further, the inhibition result in [17] is “Dose-dependent effect”. Moreover, the K in assay [18] is 2.71 ×10⁴ L/mol. The figures for the Ratio in [19] and in assay [20] were 2 and 16, respectively. Further, the result in assay [21] was Active.

As for `CCCCCCCCCCCCCCCCn1c2ccc(C(=O)CCl)cc2c2cc(C(=O)CCl)ccc21`, the MIC in [1] is 256 µg/mL (≈ 470 µM); in [2], 256 µg/mL (≈ 470 µM); in assay [3], 256 µg/mL (≈ 470 µM); in assay [4] it was 256 µg/mL (≈ 470 µM); in assay [5] it was 128 µg/mL (≈ 235 µM); in assay [6], 512 µg/mL (≈ 940 µM). Besides, the MIC in assay [7] was determined as 256 µg/mL (≈ 470 µM); in [8] it was 256 µg/mL (≈ 470 µM); in [11], 512 µg/mL (≈ 940 µM); in assay [12] it was 256 µg/mL (≈ 470 µM); in [13], 256 µg/mL (≈ 470 µM); in assay [14], 512 µg/mL (≈ 940 µM). This compound had an MIC in assay [15] of 256 µg/mL (≈ 470 µM).

Consider `CCCCCCCCCCCCCCCCCCn1c2ccc(-c3csc(N)n3)cc2c2cc(-c3csc(N)n3)ccc21`, for which the MIC came to 128 µg/mL (≈ 208 µM) in assay [1]; 256 µg/mL (≈ 416 µM) in assay [2]; 256 µg/mL (≈ 416 µM) in [3]; 256 µg/mL (≈ 416 µM) in assay [4]; 256 µg/mL (≈ 416 µM) in [5]; 256 µg/mL (≈ 416 µM) in [6]. For the same compound, the MIC in assay [7] worked out at 512 µg/mL (≈ 831 µM); in assay [8], 256 µg/mL (≈ 416 µM); in [11] it was 256 µg/mL (≈ 416 µM); in assay [12], 512 µg/mL (≈ 831 µM); in assay [13], 512 µg/mL (≈ 831 µM); in assay [14] it was 256 µg/mL (≈ 416 µM). Besides, in assay [15], inhibition of growth (MIC) required 512 µg/mL (≈ 831 µM).

In the case of `CCCCCCCCCCCCCCCCn1c2ccc(-c3csc(N)n3)cc2c2cc(-c3csc(N)n3)ccc21`, the MIC in [1] is 128 µg/mL (≈ 218 µM); in assay [2], 512 µg/mL (≈ 871 µM); in assay [3], 128 µg/mL (≈ 218 µM); in [4], 128 µg/mL (≈ 218 µM); in [5], 256 µg/mL (≈ 435 µM); in [6], 512 µg/mL (≈ 871 µM). The MIC in assay [7] worked out at 256 µg/mL (≈ 435 µM); in [8], 128 µg/mL (≈ 218 µM); in [11], 512 µg/mL (≈ 871 µM); in assay [12], 512 µg/mL (≈ 871 µM); in assay [13], 512 µg/mL (≈ 871 µM); in [14] it was 256 µg/mL (≈ 435 µM). Also, in assay [15], the MIC worked out at 256 µg/mL (≈ 435 µM).

Consider `CCn1c2ccc(C(=O)CCl)cc2c2cc(C(=O)CCl)ccc21`, for which the MIC came out at 512 µg/mL (≈ 1470 µM) in assay [1]; 512 µg/mL (≈ 1470 µM) in assay [2]; 512 µg/mL (≈ 1470 µM) in [3]; 256 µg/mL (≈ 735 µM) in assay [4]; 256 µg/mL (≈ 735 µM) in [5]; 512 µg/mL (≈ 1470 µM) in [6]. The MIC was determined as 256 µg/mL (≈ 735 µM) in assay [7]; 256 µg/mL (≈ 735 µM) in assay [8]; 512 µg/mL (≈ 1470 µM) in assay [11]; 128 µg/mL (≈ 368 µM) in [12]; 256 µg/mL (≈ 735 µM) in assay [13]; 128 µg/mL (≈ 368 µM) in [14]. The compound also registered an MIC in assay [15] of 512 µg/mL (≈ 1470 µM).
